Results taken from ChEMBL document CHEMBL4828770, “Structural and Activity Relationships of 6-Sulfonyl-8-Nitrobenzothiazinones as Antitubercular Agents” (J Med Chem, 2021).
Active and inactive are the calls of the source. The rule behind the calls is not given here.

Experiments:
[1] = tested on: Mycobacterium tuberculosis; assay: Antimycobacterial activity against Mycobacterium tuberculosis H37Rv ACTT 25618 assessed as inhibition of visible growth incubated for 7 days by micro plate alamar blue assay; type: functional; conditions: H37Rv ACTT 25618, 168 h, time 7 day
[2] = biological target: T1, Decaprenylphosphoryl-beta-D-ribose oxidase (Mycobacterium tuberculosis (strain ATCC 25618 / H37Rv)) (UniProt P9WJF1); assay: Inhibition of Mycobacterium tuberculosis H37Rv DprE1 assessed as increase in trehalose dimycolates accumulation at 100 x MIC incubated for 24 hrs using [14C]acetate by TLC based metabolic labelling assay
T1 sequence (whole entry): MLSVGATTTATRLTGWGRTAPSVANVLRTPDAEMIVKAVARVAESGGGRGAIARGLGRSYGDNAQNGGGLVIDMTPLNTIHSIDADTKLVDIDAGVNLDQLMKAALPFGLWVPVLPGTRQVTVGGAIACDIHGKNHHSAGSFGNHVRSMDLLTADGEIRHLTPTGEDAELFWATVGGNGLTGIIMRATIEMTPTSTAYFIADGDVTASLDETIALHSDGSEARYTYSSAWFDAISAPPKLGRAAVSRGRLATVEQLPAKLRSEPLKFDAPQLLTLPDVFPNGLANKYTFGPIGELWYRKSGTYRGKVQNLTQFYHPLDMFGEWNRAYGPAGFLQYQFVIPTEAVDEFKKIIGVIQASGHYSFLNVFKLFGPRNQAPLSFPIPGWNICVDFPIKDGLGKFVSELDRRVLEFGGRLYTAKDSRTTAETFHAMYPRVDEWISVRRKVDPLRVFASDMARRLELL

[3] = biological target: T2, Decaprenylphosphoryl-beta-D-ribose oxidase (Mycobacterium tuberculosis (strain ATCC 25618 / H37Rv), UniProt P9WJF1); assay: Inhibition of Mycobacterium tuberculosis recombinant DprE1 expressed in Escherichia coli assessed as formation of resorufin using FPR as substrate by Amplex Red […] coupled assay
T2 sequence (P9WJF1 whole entry): T1 sequence (whole entry)

[4] = Metabolic stability in human liver microsomes assessed as half life in presence of NADPH by LC/MS analysis; type: ADME, Microsome
HepG2 = assay: Cytotoxicity against human HepG2 cells assessed as cell viability incubated for 48 hrs by CCK-8 assay; type: cell-based; conditions: hepg2, 48 h
[5] = biological target: T1, Decaprenylphosphoryl-beta-D-ribose oxidase (Mycobacterium tuberculosis (strain ATCC 25618 / H37Rv)); assay: Inhibition of Mycobacterium tuberculosis H37Rv DprE1 assessed as increase in trehalose monomycolates accumulation at 100 x MIC incubated for 24 hrs using [14C]acetate by TLC based metabolic labelling assay
[6] = Metabolic stability in human liver microsomes assessed as clearance in presence of NADPH by LC/MS analysis; type: ADME, Microsome; conditions: read-out: CLH

| SMILES | MIC [1] | further results |
| --- | --- | --- |
| C[C@H](c1cn(-c2ccccc2)nn1)N(C)c1nc(=O)c2cc(S(C)(=O)=O)cc([N+](=O)[O-])c2s1 | > 4.2 µM | – |
| Cc1ccc(-n2cc(CN(C)c3nc(=O)c4cc(S(C)(=O)=O)cc([N+](=O)[O-])c4s3)nn2)cc1 | 0.115 µM | – |
| CN(Cc1cn(-c2cc(F)ccc2F)nn1)c1nc(=O)c2cc(S(C)(=O)=O)cc([N+](=O)[O-])c2s1 | 0.011 µM | – |
| CN(Cc1cn(-c2ccccc2F)nn1)c1nc(=O)c2cc(S(C)(=O)=O)cc([N+](=O)[O-])c2s1 | 0.031 µM | – |
| CN(Cc1coc(-c2ccc(F)cc2)n1)c1nc(=O)c2cc(S(C)(=O)=O)cc([N+](=O)[O-])c2s1 | 0.031 µM | – |
| CCN(Cc1cn(-c2ccccc2)nn1)c1nc(=O)c2cc(S(C)(=O)=O)cc([N+](=O)[O-])c2s1 | 0.201 µM | – |
| CN(Cc1cn(-c2c(F)cccc2F)nn1)c1nc(=O)c2cc(S(C)(=O)=O)cc([N+](=O)[O-])c2s1 | 0.28 µM | – |
| CN(Cc1cn(-c2ccccc2)nn1)c1nc(=O)c2cc(S(C)(=O)=O)cc([N+](=O)[O-])c2s1 | 0.0006 µM | Activity [2]: Active; IC50 [3]: 780 nM; half-life [4]: 53.7 min; Activity (HepG2): Non-Toxic; Activity [5]: Active; CLint scaled [6]: 32.4 mL/min/kg |
| CN(Cc1coc(C2CCCCC2)n1)c1nc(=O)c2cc(S(C)(=O)=O)cc([N+](=O)[O-])c2s1 | 0.433 µM | – |
| CN(Cc1cn(-c2cccc(Br)c2)nn1)c1nc(=O)c2cc(S(C)(=O)=O)cc([N+](=O)[O-])c2s1 | 0.044 µM | – |
| CN(Cc1cn(-c2cccc(C(F)(F)F)c2)nn1)c1nc(=O)c2cc(S(C)(=O)=O)cc([N+](=O)[O-])c2s1 | 0.044 µM | – |
| CN(Cc1cn(C2CCCCC2)nn1)c1nc(=O)c2cc(S(C)(=O)=O)cc([N+](=O)[O-])c2s1 | 0.047 µM | – |
| CN(Cc1nnc(-c2cccc(F)c2)o1)c1nc(=O)c2cc(S(C)(=O)=O)cc([N+](=O)[O-])c2s1 | 0.049 µM | – |
| CN(Cc1nnc(-c2ccc(F)c(F)c2)o1)c1nc(=O)c2cc(S(C)(=O)=O)cc([N+](=O)[O-])c2s1 | 0.043 µM | – |
| CN(Cc1ccc2c(c1)OCCO2)c1nc(=O)c2cc(S(C)(=O)=O)cc([N+](=O)[O-])c2s1 | 0.066 µM | – |
| CN(c1nc(=O)c2cc(S(C)(=O)=O)cc([N+](=O)[O-])c2s1)C1(c2cn(-c3ccccc3)nn2)CC1 | > 4 µM | – |
| CN(Cc1nnc(-c2ccc(F)c(F)c2)s1)c1nc(=O)c2cc(S(C)(=O)=O)cc([N+](=O)[O-])c2s1 | 0.031 µM | – |
| CN(Cc1nnc(-c2ccc(F)cc2)s1)c1nc(=O)c2cc(S(C)(=O)=O)cc([N+](=O)[O-])c2s1 | 0.047 µM | – |
| CN(Cc1nnc(-c2cc(F)cc(F)c2)s1)c1nc(=O)c2cc(S(C)(=O)=O)cc([N+](=O)[O-])c2s1 | 0.023 µM | – |
| CN(Cc1nnc(-c2cccc(F)c2)s1)c1nc(=O)c2cc(S(C)(=O)=O)cc([N+](=O)[O-])c2s1 | 0.045 µM | – |
| CN(Cc1nnc(-c2ccccc2)s1)c1nc(=O)c2cc(S(C)(=O)=O)cc([N+](=O)[O-])c2s1 | 0.037 µM | half-life [4]: 13.2 min; CLint scaled [6]: 128 mL/min/kg |
| CN(Cc1nnc(-c2ccc(F)cc2)o1)c1nc(=O)c2cc(S(C)(=O)=O)cc([N+](=O)[O-])c2s1 | 0.061 µM | – |
| C[C@@H](c1cn(-c2ccccc2)nn1)N(C)c1nc(=O)c2cc(S(C)(=O)=O)cc([N+](=O)[O-])c2s1 | 0.252 µM | – |
| O=c1nc(N2CCN(CC3CCCCC3)CC2)sc2c([N+](=O)[O-])cc(C(F)(F)F)cc12 [MACOZINONE] | < 0.2 ng/mL | half-life [4]: 76.3 min; CLint scaled [6]: 22.8 mL/min/kg |
| CN(Cc1coc(-c2ccccc2)n1)c1nc(=O)c2cc(S(C)(=O)=O)cc([N+](=O)[O-])c2s1 | 0.021 µM | IC50 [3]: 940 nM; half-life [4]: 21 min; CLint scaled [6]: 82.7 mL/min/kg |
| CN(Cc1nnc(-c2ccc(F)cc2F)s1)c1nc(=O)c2cc(S(C)(=O)=O)cc([N+](=O)[O-])c2s1 | 0.023 µM | – |

| SMILES | MIC [1] | further results |
| --- | --- | --- |
| CN(Cc1csc(-c2ccc(F)cc2)n1)c1nc(=O)c2cc(S(C)(=O)=O)cc([N+](=O)[O-])c2s1 | 0.057 µM | – |
| COc1cccc(-n2cc(CN(C)c3nc(=O)c4cc(S(C)(=O)=O)cc([N+](=O)[O-])c4s3)nn2)c1 | 0.199 µM | – |
| CN(Cc1nnc(-c2ccc(F)cc2F)o1)c1nc(=O)c2cc(S(C)(=O)=O)cc([N+](=O)[O-])c2s1 | 0.045 µM | – |
| CN(Cc1cn(Cc2cnoc2)nn1)c1nc(=O)c2cc(S(C)(=O)=O)cc([N+](=O)[O-])c2s1 | > 2 µM | – |
| CN(Cc1cn(-c2ccc(F)c(F)c2)nn1)c1nc(=O)c2cc(S(C)(=O)=O)cc([N+](=O)[O-])c2s1 | 0.022 µM | – |
| CN(Cc1cn(-c2cc(F)cc(F)c2)nn1)c1nc(=O)c2cc(S(C)(=O)=O)cc([N+](=O)[O-])c2s1 | 0.022 µM | – |
| CN(Cc1cn(-c2cccc(F)c2)nn1)c1nc(=O)c2cc(S(C)(=O)=O)cc([N+](=O)[O-])c2s1 | 0.014 µM | – |
| CN(Cc1csc(-c2cccc(F)c2)n1)c1nc(=O)c2cc(S(C)(=O)=O)cc([N+](=O)[O-])c2s1 | 0.024 µM | – |
| CN(Cc1nnc(-c2ccccc2)o1)c1nc(=O)c2cc(S(C)(=O)=O)cc([N+](=O)[O-])c2s1 | 0.03 µM | Activity [2]: Active; IC50 [3]: 2100 nM; half-life [4]: 45.9 min; Activity (HepG2): Non-Toxic; Activity [5]: Active; CLint scaled [6]: 37.8 mL/min/kg |
| CN(CCN(C)c1nc(=O)c2cc(S(C)(=O)=O)cc([N+](=O)[O-])c2s1)CC1CCCCC1 | 0.148 µM | – |
| CN(Cc1cn(Cc2ccccc2)nn1)c1nc(=O)c2cc(S(C)(=O)=O)cc([N+](=O)[O-])c2s1 | 0.309 µM | – |
| CN(Cc1cn(-c2cccc(C#N)c2)nn1)c1nc(=O)c2cc(S(C)(=O)=O)cc([N+](=O)[O-])c2s1 | 0.048 µM | – |
| CN(Cc1cn(-c2cccc(I)c2)nn1)c1nc(=O)c2cc(S(C)(=O)=O)cc([N+](=O)[O-])c2s1 | 0.055 µM | – |
| CN(Cc1nnc(-c2cc(F)cc(F)c2)o1)c1nc(=O)c2cc(S(C)(=O)=O)cc([N+](=O)[O-])c2s1 | 0.022 µM | – |
| CN(Cc1cn(-c2cccnc2)nn1)c1nc(=O)c2cc(S(C)(=O)=O)cc([N+](=O)[O-])c2s1 | 0.533 µM | – |
| CC(C)S(=O)(=O)c1cc([N+](=O)[O-])c2sc(N3CCN(CC4CCCCC4)CC3)nc(=O)c2c1 | < 0.001 µM | – |
| CN(Cc1cn(-c2ccc(F)cc2F)nn1)c1nc(=O)c2cc(S(C)(=O)=O)cc([N+](=O)[O-])c2s1 | 0.024 µM | – |
| CN(Cc1cn(-c2cccc(Cl)c2)nn1)c1nc(=O)c2cc(S(C)(=O)=O)cc([N+](=O)[O-])c2s1 | 0.089 µM | – |
| CS(=O)(=O)c1cc([N+](=O)[O-])c2sc(N3CCN(CC4CCCCC4)CC3)nc(=O)c2c1 | – | half-life [4]: 25.8 min; CLint scaled [6]: 89.8 mL/min/kg |
| CN(Cc1ccccc1)c1nc(=O)c2cc(S(C)(=O)=O)cc([N+](=O)[O-])c2s1 | 0.253 µM | – |
| CCS(=O)(=O)c1cc([N+](=O)[O-])c2sc(N3CCN(CC4CCCCC4)CC3)nc(=O)c2c1 | < 0.001 µM | – |
| Cc1cccc(-n2cc(CN(C)c3nc(=O)c4cc(S(C)(=O)=O)cc([N+](=O)[O-])c4s3)nn2)c1 | 0.1 µM | – |
| CN(Cc1csc(-c2ccccc2)n1)c1nc(=O)c2cc(S(C)(=O)=O)cc([N+](=O)[O-])c2s1 | 0.023 µM | half-life [4]: 16.2 min; CLint scaled [6]: 107 mL/min/kg |
| CN(Cc1cn(-c2ccc(F)cc2)nn1)c1nc(=O)c2cc(S(C)(=O)=O)cc([N+](=O)[O-])c2s1 | 0.024 µM | – |
| CN(Cc1cn(-c2cnoc2)nn1)c1nc(=O)c2cc(S(C)(=O)=O)cc([N+](=O)[O-])c2s1 | 0.065 µM | – |
